Data reported in the NIST ThermoML archive (doi:10.1016/j.jct.2006.08.009).

Experiment: mn = molality of the nth substance listed, in mol/kg
Settings: 350 kPa, Liquid; for apparent molar heat capacity: Extra sensitive DSC

OC[C@@H](O)[C@@H](O)CO [meso-1,2,3,4-butanetetrol] + O
Settings	apparent molar heat capacity [J/K/mol]	mass density [kg/m3]
278.15 K, m1 = 0.0201	261	1000.64
278.15 K, m1 = 0.05	279	1001.78
278.15 K, m1 = 0.0999	275.3	1003.47
278.15 K, m1 = 0.2501	273	1009.14
278.15 K, m1 = 0.4998	272.1	1017.67
278.15 K, m1 = 1	270.3	1034.19
278.15 K, m1 = 2.002	264	1062.98
278.15 K, m1 = 3.003	267.2	1087.04
283.15 K, m1 = 0.0201	273	1000.38
283.15 K, m1 = 0.05	290	1001.54
283.15 K, m1 = 0.0999	287.2	1003.19
283.15 K, m1 = 0.2501	285.1	1008.79
283.15 K, m1 = 0.4998	284.1	1017.48
283.15 K, m1 = 1	282.7	1033.48
283.15 K, m1 = 2.002	277.2	1061.96
283.15 K, m1 = 3.003	279.1	1085.8
288.15 K, m1 = 0.0201	282	999.84
288.15 K, m1 = 0.05	300	1000.96
288.15 K, m1 = 0.0999	296.3	1002.66
288.15 K, m1 = 0.2501	294.4	1008.13
288.15 K, m1 = 0.4998	293.4	1016.68
288.15 K, m1 = 1	291.9	1032.49
288.15 K, m1 = 2.002	286.3	1060.61
288.15 K, m1 = 3.003	288	1084.24
293.15 K, m1 = 0.0201	290	–
293.15 K, m1 = 0.05	307	–
293.15 K, m1 = 0.0999	303.8	–
293.15 K, m1 = 0.2501	302.3	–
293.15 K, m1 = 0.4998	301.3	–
293.15 K, m1 = 1	299.9	–
293.15 K, m1 = 2.002	294.2	–
293.15 K, m1 = 3.003	295.7	–
298.15 K, m1 = 0.0201	296	997.79
298.15 K, m1 = 0.05	314	998.88
298.15 K, m1 = 0.0999	310.6	1000.55
298.15 K, m1 = 0.2501	309	1005.86
298.15 K, m1 = 0.4998	308.1	1014.19
298.15 K, m1 = 1	306.6	1029.78
298.15 K, m1 = 2.002	300.7	1057.38
298.15 K, m1 = 3.003	302.1	1080.61
303.15 K, m1 = 0.0201	301	–
303.15 K, m1 = 0.05	320	–
303.15 K, m1 = 0.0999	316.6	–
303.15 K, m1 = 0.2501	315	–
303.15 K, m1 = 0.4998	314	–
303.15 K, m1 = 1	312.5	–
303.15 K, m1 = 2.002	306.6	–
303.15 K, m1 = 3.003	307.8	–
308.15 K, m1 = 0.0201	307	994.74
308.15 K, m1 = 0.05	325	995.77
308.15 K, m1 = 0.0999	321.8	997.29
308.15 K, m1 = 0.2501	320.2	1002.7
308.15 K, m1 = 0.4998	319.2	1010.88
308.15 K, m1 = 1	317.6	1026.18
308.15 K, m1 = 2.002	311.8	1053.42
308.15 K, m1 = 3.003	312.9	1076.46
313.15 K, m1 = 0.0201	311	–
313.15 K, m1 = 0.05	330	–
313.15 K, m1 = 0.0999	326.5	–
313.15 K, m1 = 0.2501	324.8	–
313.15 K, m1 = 0.4998	323.8	–
313.15 K, m1 = 1	322.3	–
313.15 K, m1 = 2.002	316.4	–
313.15 K, m1 = 3.003	317.4	–
318.15 K, m1 = 0.0201	315	990.96
318.15 K, m1 = 0.05	334	991.95
318.15 K, m1 = 0.0999	330.6	993.44
318.15 K, m1 = 0.2501	328.9	998.78
318.15 K, m1 = 0.4998	327.9	1006.84
318.15 K, m1 = 1	326.4	1021.96
318.15 K, m1 = 2.002	320.6	1048.89
318.15 K, m1 = 3.003	321.5	1071.67
323.15 K, m1 = 0.0201	318	–
323.15 K, m1 = 0.05	338	–
323.15 K, m1 = 0.0999	334.4	–
323.15 K, m1 = 0.2501	332.7	–
323.15 K, m1 = 0.4998	331.6	–
323.15 K, m1 = 1	330.1	–
323.15 K, m1 = 2.002	324.5	–
323.15 K, m1 = 3.003	325.24	–
328.15 K, m1 = 0.0201	322	986.49
328.15 K, m1 = 0.05	341	987.47
328.15 K, m1 = 0.0999	337.8	988.94
328.15 K, m1 = 0.2501	336	994.21
328.15 K, m1 = 0.4998	335	1002.15
328.15 K, m1 = 1	333.5	1017.15
328.15 K, m1 = 2.002	328	1043.78
328.15 K, m1 = 3.003	328.66	1066.4
333.15 K, m1 = 0.0201	325	–
333.15 K, m1 = 0.05	344	–
333.15 K, m1 = 0.0999	341	–
333.15 K, m1 = 0.2501	339.2	–
333.15 K, m1 = 0.4998	338.1	–
333.15 K, m1 = 1	336.7	–
333.15 K, m1 = 2.002	331.2	–
333.15 K, m1 = 3.003	331.8	–
338.15 K, m1 = 0.0201	328	981.39
338.15 K, m1 = 0.05	347	982.33
338.15 K, m1 = 0.0999	343.9	983.83
338.15 K, m1 = 0.2501	342	988.99
338.15 K, m1 = 0.4998	340.9	996.87
338.15 K, m1 = 1	339.5	1011.73
338.15 K, m1 = 2.002	334.2	1038.15
338.15 K, m1 = 3.003	334.7	1060.56
343.15 K, m1 = 0.0201	330	–
343.15 K, m1 = 0.05	350	–
343.15 K, m1 = 0.0999	346.4	–
343.15 K, m1 = 0.2501	344.5	–
343.15 K, m1 = 0.4998	343.5	–
343.15 K, m1 = 1	342.1	–
343.15 K, m1 = 2.002	336.9	–
343.15 K, m1 = 3.003	337.33	–
348.15 K, m1 = 0.0201	332	975.69
348.15 K, m1 = 0.05	352	976.65
348.15 K, m1 = 0.0999	348.7	978.12
348.15 K, m1 = 0.2501	346.8	983.23
348.15 K, m1 = 0.4998	345.8	991.14
348.15 K, m1 = 1	344.4	1005.88
348.15 K, m1 = 2.002	339.4	1032.07
348.15 K, m1 = 3.003	339.73	1054.35
353.15 K, m1 = 0.0201	334	–
353.15 K, m1 = 0.05	354	–
353.15 K, m1 = 0.0999	350.7	–
353.15 K, m1 = 0.2501	348.9	–
353.15 K, m1 = 0.4998	347.8	–
353.15 K, m1 = 1	346.5	–
353.15 K, m1 = 2.002	341.77	–
353.15 K, m1 = 3.003	341.88	–
358.15 K, m1 = 0.0201	336	969.51
358.15 K, m1 = 0.05	356	970.13
358.15 K, m1 = 0.0999	352.4	971.92
358.15 K, m1 = 0.2501	350.5	976.99
358.15 K, m1 = 0.4998	349.5	984.82
358.15 K, m1 = 1	348.2	999.52
358.15 K, m1 = 2.002	343.88	1025.52
358.15 K, m1 = 3.003	343.6	1047.59
363.15 K, m1 = 0.0201	337	–
363.15 K, m1 = 0.05	357	–
363.15 K, m1 = 0.0999	353	–
363.15 K, m1 = 0.2501	351.1	–
363.15 K, m1 = 0.4998	350	–
363.15 K, m1 = 1	348.7	–
363.15 K, m1 = 2.002	345.8	–
363.15 K, m1 = 3.003	344.06	–
368.15 K, m1 = 0.0201	–	962.63
368.15 K, m1 = 0.05	–	963.59
368.15 K, m1 = 0.0999	–	965.08
368.15 K, m1 = 0.2501	–	970.07
368.15 K, m1 = 0.4998	–	978.02
368.15 K, m1 = 1	–	992.7
368.15 K, m1 = 2.002	–	1018.73
368.15 K, m1 = 3.003	–	1041.19
